Measured values reported in patent US20090215805A1, “4-Heteroaryl Pyrimidine Derivatives and use thereof as Protein Kinase Inhibitors” (Cyclacel Limited, priority 2005, published 2009).

Legend:
[1] = molecular target: CDK2/E (Homo sapiens, UniProt P24941); assay: CDK2/E in vitro kinase assay; assay type: biochemical
Protocol: (§1) The compounds of the invention above were investigated for their ability to inhibit the enzymatic activity of various protein kinases. This was achieved by measurement of incorporation of radioactive phosphate from ATP into appropriate polypeptide substrates. Recombinant protein kinases and kinase complexes were produced or obtained commercially. Assays were performed using 96-well plates and appropriate assay buffers (typically 25 mM β-glycerophosphate, 20 mM MOPS, 5 mM EGTA, 1 mM DTT, 1 mM […], pH 7.4), into which were added 2-4 μg of active enzyme with appropriate substrates. The reactions were initiated by addition of Mg/ATP mix (15 mM MgCl2+100 μM ATP with 30-50 kBq per well of [γ-^32P]-ATP) and mixtures incubated as required at 30° C. Reactions were stopped on ice, followed by filtration through p81 filterplates or GF/C filterplates (Whatman Polyfiltronics, Kent, UK). After washing 3 times with 75 mM aq orthophosphoric acid, plates were dried, scintillant added and incorporated radioactivity measured in a scintillation counter (TopCount, Packard Instruments, Pangbourne, Berks, UK). Compounds for kinase assay were made up as 10 mM stocks in DMSO and diluted into 10% DMSO in assay buffer. Data was analysed using curve-fitting software (GraphPad Prism version 3.00 for Windows, GraphPad Software, San Diego Calif. USA) to determine IC50 values (concentration of test compound which inhibits kinase activity by 50%).

[2] = test system: Glycogen synthase activation in HEK293 cells; assay: Glycogen synthase activation in HEK293 cells; assay type: cell-based; conditions: Homo sapiens, 1.5 h, 90 minutes treatment
Protocol: (§2) HEK293 cells, mouse adipocytes or rat myotubes were treated in 10 cm Petri dishes with different concentrations of GSK3 inhibitors for 90 minutes. At the end of the treatment period the cells were washed and scraped in ice cold PBS buffer supplemented with 20 mM NaF. The cells were pelleted by centrifugation and lysed in 300 μl buffer-50 mM HEPES pH 7.5, 10 mM EDTA, 100 mM NaF, 5 mM DTT, protease inhibitor cocktail (Sigma). After incubation for 30 min on ice the samples were cleared by centrifugation. The activity of glycogen synthase was determined in the soluble fraction at two different concentrations of […]-low (0.1 mM) and high (10 mM). The reaction was carried out for 30 min in a buffer—50 mM Tris pH 7.8, 20 mM EDTA, 25 mM NaF, S mM DTT. The reaction mixture (total volume of 90 μl) consisted as well of 1% glycogen, 0.3 mM UDP-glucose and 0.06 μCi ^14C-UDP-glucose. Reaction was stopped by transfer of 70 μl to a GFC 96-well filter plate, containing 140 μl 100% ethanol an the glycogen was allowed to precipitate for 1 h at 4° C. The wells were washed 2 times with 200 μl 66% ethanol and than let to dry. Subsequently, 100 μl of scintillation liquid were added, and plates were sealed and counted in a Packard Topcounter. Glycogen synthase activation was calculated as the ratio between the incorporation of labelled ^14C-UDP-glucose in glycogen at low and high concentration of […] (fractional velocity).

[3] = molecular target: GSK3 (GSK-3β) (Oryctolagus cuniculus, UniProt A0A5F9DUX8); assay: GSK-3 kinase assay; assay type: biochemical, rabbit; conditions: in vitro kinase assay
Protocol: GSK-3 was obtained from New England Biolabs (UK) Ltd., Hitchin, Herts. The recombinant enzyme was isolated from a strain of E. coli that carries a clone expressing GSK-3β derived from a rabbit skeletal muscle cDNA library [Wang, Q. M.; Fiol, C. J.; DePaoli-Roach, A. A.; Roach, P. J. J. Biol. Chem., 1994, 269, 14566]. Inhibition of GSK-3 function was assessed by measurement of phosphorylation of CREB phosphopeptide KRREILSRRPphosphoSYR in the presence of test compounds. Using a 96-well assay format, GSK3 (7.5 U) was incubated for 30 min at 30° C. in a total volume of 25 μL in 20 mM MOPS pH 7.2, 25 mM β-glycerophosphate, 5 mM EGTA, 1 mM DTT, 1 mM […], 40 μM CREB peptide, 15 mM MgCl2 and 100 μM ATP (containing 0.25 μCi [γ-^32P]-ATP) in the presence of varying concentrations of test compound. The samples were transferred to 96-well p81 filter plates (Whatman Polyfiltronics, Kent, UK), and the plates were washed 4 times with 200 μL/well of 75 mM aq orthophosphoric acid. Scintillation liquid (50 μL) was added to each well, and incorporated radioactivity for each sample was determined using a scintillation counter (TopCount, Packard Instruments, Pangboume, Berks, UK).

[4] = test system: Glycogen synthase activation in mouse adipocytes (3T3-L1); assay: Glycogen synthase activation in mouse adipocytes (3T3-L1); assay type: cell-based; conditions: 1.5 h; 3T3-L1 mouse adipocytes, 90 minutes treatment
Protocol: 3T3-L1 mouse pre-adipocytes were grown in DMEM supplemented with 10% FCS and pen/strep until fully confluent. Cell differentiation was initiated by the addition of 0.5 mM IBMX (2-isobutyl-1-methylxanthine), 0.25 μM Dexamethasone and 1 μg/ml insulin into the growth media. The differentiation media was replaced after 4 days and 7 days after the initiation of differentiation the cells were grown for additional 3 days in DMEM, 10% FCS and pen/strep.
as §2

[5] = test system: Glycogen synthase activation in rat myotubes (L6.G8.C5); assay: Glycogen synthase activation in rat myotubes (L6.G8.C5); assay type: cell-based; conditions: Myotube, 1.5 h, 90 minutes treatment
Protocol: Rat myotubes were differentiated from L6.G8.C5 myoblasts, which were grown in DMEM, 10% FCS and pen/strep until confluent. The media was then removed, cells washed with PBS and differentiation media containing minimal essential media eagles (alpha modified) supplemented with 2% FCS and pen/strep. The cells were cultured for 3-4 days until >90% of cells have formed multinucleated myotubes. The differentiated cells were then used for determination of glycogen synthase activation after treatment with GSK3 inhibitors.
as §2

[6] = test system: PEPCK gene expression in HEPG2 cells; assay: PEPCK gene expression in HEPG2 cells - QPCR assay; assay type: cell-based; conditions: HEPG2, Dex/cAMP +, percentage of the dexametasone-induced stimulation
Protocol: PEPCK gene expression was studied in HEPG2 (hepatocarcinoma) cells, seeded in 6-well plate at […] cells per well. The cells were serum starved for 20 hours before treatment with dexamethasone/cAMP (stimulator of PEPCK gene expression) in the presence or absence of insulin or GSK3 inhibitors. After 3 hours treatment the cells were harvested, lysed and RNA extracted using mini RNeasy spin column (Quiagen). The primer set COD2063/COD2064 (350 bp) was used for PEPCK gene. The one step RT-PCR was carried out using the Lightcycler-RNA Master SYBR Green 1 Kit. The qPCR analysis calculates the number of the PCR cycles required for the PCR product amplification to reach logarithmic phase. QPCR for a housekeeping gene—28S—was used for normalisation. PEPCK is a key enzyme in gluconeogenesis in the liver and it is known be negatively regulated by insulin via inhibition of GSK3. The effect of GSK3 inhibitors on PEPCK gene expression was studied in HEPG2 (hepatocarcinoma) cells treated with dexametasone/cAMP (a positive regulator of PEPCK gene expression) in the presence or absence of insulin or GSK3 inhibitors.

[7] = molecular target: DM Aur A (Dm AK-A) (Drosophila melanogaster, UniProt Q9VGF9); assay: Dm aurora A kinase assay (DM Aur A / Dm AK-A); assay type: biochemical; conditions: for Ki: in vitro kinase assay; for IC50: values without asterisk (DM aurora A)
Protocol: as §1

Sequence of GSK3 (GSK-3β) (A0A5F9DUX8 entry or part of it): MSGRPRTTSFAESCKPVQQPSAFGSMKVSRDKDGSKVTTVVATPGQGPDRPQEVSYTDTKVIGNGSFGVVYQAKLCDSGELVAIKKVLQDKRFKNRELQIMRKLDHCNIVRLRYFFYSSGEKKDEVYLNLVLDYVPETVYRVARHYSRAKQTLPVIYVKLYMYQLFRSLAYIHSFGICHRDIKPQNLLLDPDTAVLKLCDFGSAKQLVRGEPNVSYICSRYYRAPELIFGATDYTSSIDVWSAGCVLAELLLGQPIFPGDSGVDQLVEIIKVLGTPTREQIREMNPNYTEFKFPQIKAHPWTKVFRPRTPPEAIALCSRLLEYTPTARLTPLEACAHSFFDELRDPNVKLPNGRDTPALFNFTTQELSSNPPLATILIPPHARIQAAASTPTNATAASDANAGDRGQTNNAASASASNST
Sequence of DM Aur A (Dm AK-A) (Q9VGF9 entry or part of it): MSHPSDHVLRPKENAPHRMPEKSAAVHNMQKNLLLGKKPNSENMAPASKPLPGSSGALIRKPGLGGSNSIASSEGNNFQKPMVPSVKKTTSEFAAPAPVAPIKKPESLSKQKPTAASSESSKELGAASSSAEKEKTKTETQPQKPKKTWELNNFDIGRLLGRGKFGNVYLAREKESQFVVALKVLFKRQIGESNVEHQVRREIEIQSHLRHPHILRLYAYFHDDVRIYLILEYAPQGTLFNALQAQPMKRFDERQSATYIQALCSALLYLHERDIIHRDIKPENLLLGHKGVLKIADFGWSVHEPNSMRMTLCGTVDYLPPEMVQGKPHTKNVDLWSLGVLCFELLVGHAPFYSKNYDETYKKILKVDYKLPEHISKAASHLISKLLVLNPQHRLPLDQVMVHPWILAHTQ

Row | Molecule | Ki [1] [nM] | EC50 [2] [nM] | Ki [3] [nM] | EC50 [4] [nM] | EC50 [5] [nM] | % PEPCK activity ([6]; concentration 1 uM) [%] | % PEPCK activity ([6]; concentration 10 uM) [%] | Ki [7] [nM] | IC50 [7] [nM] | % PEPCK activity ([6]; concentration 0.1 uM) [%]
1 | Cc1[nH]c(C#N)c(C)c1-c1ccnc(Nc2ccc(N(C)C)c([N+](=O)[O-])c2)n1 [Compound 18] | 119 | 1500 | 5 | 4120 | – | – | – | – | – | –
2 | Cc1[nH]c([N+](=O)[O-])c(C)c1-c1ccnc(Nc2ccc(N(C)C)c([N+](=O)[O-])c2)n1 [Compound 19] | 41 | 700 | 4 | 5600 | 6300 | 72.9 ± 9.06 | 45.4 ± 1.9 | – | – | –
3 | COc1ccc(Nc2nccc(-c3c(C)[nH]c(C#N)c3C)n2)cn1 [Compound 28] | 188 | 6600 | 5 | 7900 | 9000 | 48.4 ± 7.3 | 11.7 ± 1.3 | 177 | 453 | –
4 | Cc1[nH]c(C#N)c(C)c1-c1ccnc(Nc2ccc(Cl)nc2)n1 [Compound 30] | 197 | 2200 | 3 | 4300 | 2300 | 22.8 ± 12.1 | 16.2 ± 3.8 | 681 | 861 | –
5 | CCNS(=O)(=O)c1cccc(Nc2nccc(-c3c(C)[nH]c(C#N)c3C)n2)c1 [Compound 32] | 377 | 4100 | 3 | 2100 | 5000 | – | – | 161 | 413 | –
6 | Insulin: insulin, comparator known to negatively regulate PEPCK via inhibition of GSK3 | – | – | – | – | – | – | – | – | – | 67.5 ± 9.0
